Data from ChEMBL document CHEMBL3804805, “Cathepsin B Inhibitors: Combining Dipeptide Nitriles with an Occluding Loop Recognition Element by Click Chemistry” (ACS Med Chem Lett, 2016).

Assays:
Cathepsin B [1] = molecular target: T1, Cathepsin B (Homo sapiens, UniProt P07858); experiment: Inhibition of human liver cathepsin B using Cbz-Arg-Arg-pNA as substrate at pH 6 incubated for 30 mins measured for 20 mins by photometrical analysis
Procathepsin L = Procathepsin L (Homo sapiens, UniProt P07711); experiment: Inhibition of human liver cathepsin L using Cbz-Phe-Arg-pNA as substrate incubated for 30 mins measured for 20 mins by photometrical analysis
Cathepsin S = Cathepsin S (Homo sapiens, UniProt P25774); experiment: Inhibition of human recombinant cathepsin S using Cbz-Phe-Arg-AMC as substrate incubated for 60 mins measured for 20 mins by spectrofluorometrical analysis
Cathepsin K = molecular target: T2, Cathepsin K (Homo sapiens, UniProt P43235); experiment: Inhibition of human recombinant cathepsin K using Cbz-Leu-Arg-AMC as substrate incubated for 30 mins measured for 20 mins by spectrofluorometrical analysis
T2 sequence (P43235 whole entry): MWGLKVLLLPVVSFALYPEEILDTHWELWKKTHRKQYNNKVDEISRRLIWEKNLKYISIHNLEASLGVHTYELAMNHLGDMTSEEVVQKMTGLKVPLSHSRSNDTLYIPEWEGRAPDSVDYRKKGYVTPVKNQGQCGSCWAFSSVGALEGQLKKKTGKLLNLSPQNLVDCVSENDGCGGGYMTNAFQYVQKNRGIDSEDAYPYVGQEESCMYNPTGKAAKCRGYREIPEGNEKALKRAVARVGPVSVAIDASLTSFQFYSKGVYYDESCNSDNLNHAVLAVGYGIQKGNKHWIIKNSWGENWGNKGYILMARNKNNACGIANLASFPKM

Cathepsin B [2] = molecular target: T1, Cathepsin B; experiment: Inhibition of human liver cathepsin B using Abz-Gly-Ile-Val-Arg-Ala-Lys(Dnp)-OH as substrate at pH 4.5 incubated for 30 mins measured for 10 mins by […]
Cathepsin B [3] = molecular target: T1, Cathepsin B; experiment: Inhibition of human liver cathepsin B using Cbz-Arg-Arg-pNA as substrate at pH 4.5 incubated for 30 mins measured for 20 mins by photometrical analysis
Cathepsin B [4] = molecular target: T1, Cathepsin B; experiment: Inhibition of human cathepsin B

Cathepsin S, sequence (P25774 whole entry): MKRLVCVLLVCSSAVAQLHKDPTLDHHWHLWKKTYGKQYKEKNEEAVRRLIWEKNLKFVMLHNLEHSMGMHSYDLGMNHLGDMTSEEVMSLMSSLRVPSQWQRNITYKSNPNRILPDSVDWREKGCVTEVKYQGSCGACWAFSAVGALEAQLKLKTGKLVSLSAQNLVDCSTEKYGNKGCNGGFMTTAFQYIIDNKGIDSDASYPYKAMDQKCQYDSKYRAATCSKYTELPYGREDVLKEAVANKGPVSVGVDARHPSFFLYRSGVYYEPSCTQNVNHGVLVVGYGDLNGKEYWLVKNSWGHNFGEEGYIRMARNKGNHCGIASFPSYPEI
Procathepsin L, sequence (P07711 whole entry): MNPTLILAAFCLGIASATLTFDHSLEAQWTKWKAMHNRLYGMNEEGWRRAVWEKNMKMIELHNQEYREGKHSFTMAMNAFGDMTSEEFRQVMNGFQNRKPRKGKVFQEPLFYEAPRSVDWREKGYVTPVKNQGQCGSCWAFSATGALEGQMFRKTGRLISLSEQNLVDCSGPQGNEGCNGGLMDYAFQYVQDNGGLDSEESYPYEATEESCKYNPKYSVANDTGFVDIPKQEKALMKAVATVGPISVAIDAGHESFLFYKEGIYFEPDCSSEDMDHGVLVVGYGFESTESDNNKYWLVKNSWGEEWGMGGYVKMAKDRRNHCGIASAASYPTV

Compound	Ki (Cathepsin B [1])	other results
CC(C)C[C@H](NC(=O)Nc1ccc(-c2noc(-c3cccs3)n2)cc1)C(=O)NCC#N	> 330 nM	–
CC(C)C[C@H](NC(=O)c1ccc(-c2noc(-c3cccs3)n2)cc1)C(=O)NCC#N	> 330 nM	–
CC(C)(C)OC(=O)N[C@@H](COCc1ccccc1)C(=O)NCC#N	> 330 nM	–
CC(=O)N[C@@H](Cc1ccccc1)C(=O)NCC#N	> 330 nM	–
CC(C)(C)OC(=O)N[C@@H](CCc1ccccc1)C(=O)NCC#N	> 330 nM	–
CC(C)[C@H](NC(=O)OC(C)(C)C)C(=O)NCC#N	> 330 nM	–
CC(C)(C)OC(=O)NCC(=O)NCC#N	> 330 nM	–
N#CCNC(=O)CNC(=O)OCc1ccccc1	> 330 nM	–
CC(C)(C)OC(=O)N1CCC[C@H]1C(=O)NCC#N	> 330 nM	–
N#CCNC(=O)C1(NC(=O)OCc2ccccc2)CCCCC1	> 330 nM	–
CC(C)C[C@H](NC(=O)OC(C)(C)C)C(=O)NCC#N	94000 nM	–
CC(C)C[C@H](NC(=O)OCc1ccccc1)C(=O)NCC#N	32000 nM	–
N#CCNC(=O)[C@H](Cc1ccccc1)NC(=O)c1ccc(-c2ccccc2)cc1	3920 nM	–
CC(C)(C)OC(=O)N[C@@H](Cc1cccc2ccccc12)C(=O)NCC#N	> 330 nM	–
CC(C)(C)OC(=O)N[C@@H](Cc1ccccc1)C(=O)NCC#N	37000 nM	–
CC(C)(C)OC(=O)N[C@@H](Cc1ccccc1Br)C(=O)NCC#N	> 330 nM	–
CC(C)(C)OC(=O)N[C@@H](Cc1ccc2ccccc2c1)C(=O)NCC#N	3460 nM	–
CC(C)(C)OC(=O)N[C@@H](Cc1ccc(-c2ccccc2)cc1)C(=O)NCC#N	> 330 nM	–
CC[C@H](NC(=O)OC(C)(C)C)C(=O)NCC#N	> 330 nM	–
CC(C)(C)OC(=O)N[C@H](C(=O)NCC#N)c1ccccc1	> 330 nM	–
CC(C)(C)OC(=O)N[C@@H](Cc1cccs1)C(=O)NCC#N	> 330 nM	–
C[C@H](NC(=O)OC(C)(C)C)C(=O)NCC#N	> 330 nM	–
CC(C)(C)OC(=O)N[C@@H](Cc1ccc(Br)cc1)C(=O)NCC#N	> 330 nM	–

Compound	Ki (Cathepsin B [1])	other results
CN(CC#N)C(=O)[C@H](Cc1ccccc1)NC(=O)OC(C)(C)C	> 330 nM	–
CC(C)(C)OC(=O)N[C@H](Cc1ccccc1)C(=O)NCC#N	> 330 nM	–
CC(C)(C)OC(=O)N[C@@H](Cc1ccc(F)cc1)C(=O)NCC#N	> 330 nM	–
N#CCNC(=O)[C@H](Cc1ccccc1)NC(=O)OCc1ccccc1	> 330 nM	–
CC(C)(C)OC(=O)N[C@@H](CC1CCCCC1)C(=O)NCC#N	> 330 nM	–
CC(C)(C)OC(=O)N[C@@H](CC1CC1)C(=O)NCC#N	> 330 nM	–
N#CCNC(=O)[C@H](Cc1ccccc1)NC(=O)c1ccccc1	> 330 nM	–
CC(C)(C)OC(=O)N[C@@H](Cc1cccc(Br)c1)C(=O)NCC#N	5170 nM	–
CC(C)(C)OC(=O)N[C@@H](Cc1ccc(O)cc1)C(=O)NCC#N	> 330 nM	–
CSCC[C@@H](C#N)NC(=O)C(CC(C)C)NC(=O)c1ccc(-c2ccccc2)cc1 (some centres not stated)	> 330 nM	–
N#C[C@H](COCc1cn(CCC(=O)O)nn1)NC(=O)[C@H](Cc1ccccc1)NC(=O)OCc1ccccc1	33000 nM	Ki (Procathepsin L): 1270 nM; Ki (Cathepsin S): 2250 nM; Ki (Cathepsin K): 370 nM
N#CCNC(=O)[C@H](Cc1cccc(-c2ccccc2)c1)NC(=O)c1ccc(-c2ccccc2)cc1	1230 nM	Ki (Procathepsin L): 707 nM; Ki (Cathepsin S): 2660 nM; Ki (Cathepsin K): 24.5 nM
CC(C)(C)OC(=O)N[C@@H](Cc1ccccc1)C(=O)N[C@H](C#N)CC#N	> 330 nM	–
N#C[C@H](CCOCc1cn(CCC(=O)O)nn1)NC(=O)[C@H](Cc1ccccc1)NC(=O)OCc1ccccc1	196000 nM	Ki (Procathepsin L): 1920 nM; Ki (Cathepsin S): 490 nM; Ki (Cathepsin K): 370 nM
N#C[C@H](CCOCc1cn(CC(=O)O)nn1)NC(=O)[C@H](Cc1ccccc1)NC(=O)OCc1ccccc1	101000 nM	Ki (Procathepsin L): 2160 nM; Ki (Cathepsin S): 1000 nM; Ki (Cathepsin K): 580 nM
N#C[C@H](COCc1cn(CC(=O)O)nn1)NC(=O)[C@H](Cc1cccc(Br)c1)NC(=O)c1ccc(-c2ccccc2)cc1	41.3 nM	Ki (Procathepsin L): 6300 nM; Ki (Cathepsin S): 352 nM; Ki (Cathepsin B [2]): 19.2 nM; Ki (Cathepsin B [3]): 27.3 nM; Ki (Cathepsin K): 335 nM
N#CCNC(=O)[C@@H](N)Cc1ccccc1	> 330 nM	–
CSCC[C@@H](C#N)NC(=O)[C@H](Cc1ccccc1)NC(=O)OC(C)(C)C	> 330 nM	–
CSCC[C@@H](C#N)NC(=O)[C@H](CC(C)C)NC(=O)c1ccc(-c2ccccc2)cc1	330 nM	–
CC(C)C[C@@H](C#N)NC(=O)[C@H](C)NC(=O)CNC(=O)OCc1ccccc1	> 330 nM	–
N#C[C@H](Cc1cn(CCC(=O)O)nn1)NC(=O)[C@H](Cc1cccc(Br)c1)NC(=O)c1ccc(-c2ccccc2)cc1	–	Ki (Procathepsin L): 6980 nM; Ki (Cathepsin S): 1800 nM; Ki (Cathepsin K): 226 nM
COc1ccc(C[C@H](NC(=O)OCc2ccccc2)C(=O)NCC#N)cc1	> 330 nM	–
CSCC[C@@H](C#N)NC(=O)[C@H](CC1CCCCC1)NC(=O)OC(C)(C)C	> 330 nM	–

Compound	Ki (Cathepsin B [1])	other results
N#C[C@H](Cc1cn(CC(=O)O)nn1)NC(=O)[C@H](Cc1cccc(Br)c1)NC(=O)c1ccc(-c2ccccc2)cc1	11200 nM	Ki (Procathepsin L): 11700 nM; Ki (Cathepsin S): 4230 nM; Ki (Cathepsin B [2]): 368 nM; Ki (Cathepsin B [3]): 707 nM; Ki (Cathepsin K): 535 nM
CC(C)(C)OC(=O)N[C@@H](Cc1cccc(-c2ccccc2)c1)C(=O)NCC#N	5350 nM	–
N#CCNC(=O)[C@H](Cc1ccc(O)cc1)NC(=O)OCc1ccccc1	> 330 nM	–
N#CCNC(=O)[C@H](Cc1cccc(Br)c1)NC(=O)c1ccc(-c2ccccc2)cc1	120 nM	Ki (Procathepsin L): 609 nM; Ki (Cathepsin S): 178 nM; Ki (Cathepsin B [2]): 220 nM; Ki (Cathepsin B [3]): 205 nM; Ki (Cathepsin K): 930 nM
N#CCNC(=O)C1(NC(=O)c2ccc(-c3noc(-c4cccs4)n3)cc2)CCCCC1	> 330 nM	–
N#CCNC(=O)[C@H](Cc1ccc2ccccc2c1)NC(=O)c1ccc(-c2ccccc2)cc1	126 nM	Ki (Procathepsin L): 4300 nM; Ki (Cathepsin S): 180 nM; Ki (Cathepsin K): 4500 nM
CC(C)C[C@H](NC(=O)c1ccc(-c2ccccc2)cc1)C(=O)NCC#N	–	Ki (Cathepsin B [4]): 1790 nM
COC(=O)Cn1cc(COC[C@@H](C#N)NC(=O)[C@H](Cc2cccc(Br)c2)NC(=O)c2ccc(-c3ccccc3)cc2)nn1	26 nM	Ki (Procathepsin L): 431 nM; Ki (Cathepsin S): 186 nM; Ki (Cathepsin B [2]): 131 nM; Ki (Cathepsin B [3]): 136 nM; Ki (Cathepsin K): 67.6 nM
CSCC[C@@H](C#N)NC(=O)[C@H](CC(C)C)NC(=O)OC(C)(C)C	> 330 nM	–
N#CCNC(=O)[C@H](CC1CCCCC1)NC(=O)c1ccc(-c2noc(-c3cccs3)n2)cc1	> 330 nM	–
CCC(C)[C@H](NC(=O)OC(C)(C)C)C(=O)NCC#N (some centres not stated)	> 330 nM	–
N#CCNC(=O)[C@H](CC1CCCCC1)NC(=O)c1ccc(-c2ccccc2)cc1	> 330 nM	–
C[C@@H](C#N)N(C)C(=O)[C@H](Cc1ccccc1)NC(=O)OC(C)(C)C	> 330 nM	–
N#C[C@H](COCc1cn(CC(=O)O)nn1)NC(=O)[C@H](Cc1ccccc1)NC(=O)OCc1ccccc1	24000 nM	Ki (Procathepsin L): 1050 nM; Ki (Cathepsin S): 4480 nM; Ki (Cathepsin K): 310 nM
CN(CC#N)C(=O)[C@H](Cc1ccccc1)NC(=O)OCc1ccccc1	> 330 nM	–
CC(C)(C)OC(=O)N[C@@H](Cc1c[nH]c2ccccc12)C(=O)NCC#N	> 330 nM	–
CSCC[C@H](NC(=O)OC(C)(C)C)C(=O)NCC#N	> 330 nM	–
CCCC[C@H](NC(=O)OC(C)(C)C)C(=O)NCC#N	> 330 nM	–
CCC[C@H](NC(=O)OC(C)(C)C)C(=O)NCC#N	> 330 nM	–
CC(C)(C)OC(=O)N[C@@H](Cc1ccco1)C(=O)NCC#N	> 330 nM	–
C[C@@H](C#N)NC(=O)[C@H](Cc1ccccc1)NC(=O)OCc1ccccc1	> 330 nM	–
